Literature values as cited in patent US20060127910A1, “Bpl1 as an antifungal target” (priority 2002, published 2006).

Details: mice, DOX 2 mg/ml in 5% sucrose solution as drinking water, approx. 5 ml per day

C[C@H]1c2cccc(O)c2C(O)=C2C(=O)[C@]3(O)C(O)=C(C(N)=O)C(=O)[C@@H](N(C)C)[C@@H]3[C@@H](O)[C@@H]21 [DOX, doxycycline]
concentration of DOX in kidney (kidney): > 10 mg/g of kidney | concentration of DOX in liver (liver): > 8 mg/g of liver | concentration of DOX in serum (serum): more than 2 mg/ml of serum
